Results taken from publication PMC4994520 (European journal of medicinal chemistry, 2012).

Molecular target: human PDE5 (Homo sapiens, UniProt O76074)
Assay: PDE5 inhibition, IMAP fluorescence polarization phosphodiesterase assay
Assay type: biochemical
Conditions: for inhibition at 10 µM: read-out: % PDE5 inhibition at 10 μM

Row | SMILES | IC50 [µM] | inhibition at 10 µM [%]
1 | COC(=O)[C@H]1Cc2c([nH]c3ccccc23)[C@@H](c2ccc(Br)cc2)N1 [Compound 1, Methyl (1R,3R)-1-(4-bromophenyl)-2,3,4,9-tetrahydro-1H-β-carboline-3-carboxylate] | – | 10
2 | CCN1C(=O)[C@H]2Cc3c([nH]c4ccccc34)[C@@H](c3ccc(Br)cc3)N2C1=O [Compound 5, (5R,11aR)-5-(4-Bromophenyl)-2-ethyl-5,6,11,11a-tetrahydro-1H-imidazo[1′,5′:1,6]pyrido[3,4-b]indole-1,3(2H)-dione] | 2.8 | 94.4
3 | CCC(C)N1C(=O)[C@H]2Cc3c([nH]c4ccccc34)[C@H](c3ccc(Br)cc3)N2C1=O (stereo partly drawn) [Compound 14, (5S,11aR)-5-(4-Bromophenyl)-2-sec-butyl-5,6,11,11a-tetrahydro-1H-imidazo[1′,5′:1,6]pyrido[3,4-b]indole-1,3(2H)-dione] | 6 | 67
4 | COC(=O)[C@@H]1Cc2c([nH]c3ccccc23)[C@H](c2ccc(Br)cc2)N1C(=O)CCl [Compound 23, Methyl (1S,3S)-1-(4-bromophenyl)-2-(2-chloroacetyl)-2,3,4,9-tetrahydro-1H-β-carboline-3-carboxylate] | > 10 | 19
5 | CC(C)(C)N1C(=O)[C@H]2Cc3c([nH]c4ccccc34)[C@H](c3ccc(Br)cc3)N2C1=O [Compound 18, (5S,11aR)-5-(4-Bromophenyl)-2-tert-butyl-5,6,11,11a-tetrahydro-1H-imidazo[1′,5′:1,6]pyrido[3,4-b]indole-1,3(2H)-dione] | 2.2 | 78
6 | CCCCN1CC(=O)N2[C@@H](c3ccc(Br)cc3)c3[nH]c4ccccc4c3C[C@H]2C1=O [Compound 35, (6S,12aS)-2-Butyl-6-(4-bromophenyl)-2,3,6,7,12,12a-hexahydropyrazino[1′,2′:1,6]pyrido[3,4-b]indole-1,4-dione] | 5.9 | 80

The remaining lines, values ahead:

Row | IC50 [µM] | inhibition at 10 µM [%] | SMILES
7 | < 0.01 | 98.7 | CCN1CC(=O)N2[C@H](c3ccc(Br)cc3)c3[nH]c4ccccc4c3C[C@H]2C1=O [Compound 32, (6R,12aS)-2-Ethyl-6-(4-bromophenyl)-2,3,6,7,12,12a-hexahydropyrazino [1′,2′:1,6]pyrido[3,4-b]indole-1,4-dione]
8 | – | 12 | CC(C)(C)N1CC(=O)N2[C@@H](c3ccc(Br)cc3)c3[nH]c4ccccc4c3C[C@H]2C1=O [Compound 39, (6S,12aS)-6-(4-Bromophenyl)-2-tert-butyl-2,3,6,7,12,12a-hexahydropyrazino[1′,2′:1,6]pyrido[3,4-b]indole-1,4-dione]
9 | 3.9 | 89.3 | CCN1C(=O)[C@H]2Cc3c([nH]c4ccccc34)[C@H](c3ccc(Br)cc3)N2C1=O [Compound 6, (5S,11aR)-5-(4-Bromophenyl)-2-ethyl-5,6,11,11a-tetrahydro-1H-imidazo[1′,5′:1,6]pyrido[3,4-b]indole-1,3(2H)-dione]
10 | > 10 | 30 | CC(C)(C)N1CC(=O)N2[C@H](c3ccc(Br)cc3)c3[nH]c4ccccc4c3C[C@@H]2C1=O [Compound 37, (6R,12aR)-6-(4-Bromophenyl)-2-tert-butyl-2,3,6,7,12,12a-hexahydropyrazino [1′,2′:1,6]pyrido[3,4-b]indole-1,4-dione]
11 | 0.27 | 94 | CC(C)(C)N1C(=O)[C@@H]2Cc3c([nH]c4ccccc34)[C@@H](c3ccc(Br)cc3)N2C1=O [Compound 20, (5R,11aS)-5-(4-Bromophenyl)-2-tert-butyl-5,6,11,11a-tetrahydro-1H-imidazo[1′,5′:1,6]pyrido[3,4-b]indole-1,3(2H)-dione]
12 | – | 17 | COC(=O)[C@@H]1Cc2c([nH]c3ccccc23)[C@H](c2ccc(Br)cc2)N1 [Compound 3, Methyl (1S,3S)-1-(4-bromophenyl)-2,3,4,9-tetrahydro-1H-β-carboline-3-carboxylate]
